Measurements taken from PubChem BioAssay (NCI).
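Values below derive from 48-hour exposures of cells grown in 96-well plates, with endpoints linearly interpolated between the two concentrations bracketing the appropriate inhibition level. GI50 marks 50% less growth. Definition used: TGI = concentration required for complete inhibition of growth.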

How the values were obtained:
Experiment in all cases: NCI tumour cell line growth inhibition, 48 h
HOP-92 NSCLC = system: HOP-92 NSCLC
SF-268 CNS = system: SF-268 CNS
SNB-19 CNS = system: SNB-19 CNS
HT29 colon = system: HT29 colon
SF-295 CNS = system: SF-295 CNS
HCC-2998 colon = system: HCC-2998 colon
UACC-257 melanoma = system: UACC-257 melanoma
786-0 renal = system: 786-0 renal
NCI-H226 lung = system: NCI-H226 lung
NCI/ADR-RES ovarian = system: NCI/ADR-RES ovarian
LOX IMVI melanoma = system: LOX IMVI melanoma
HCT-116 colon = system: HCT-116 colon
OVCAR-3 ovarian = system: OVCAR-3 ovarian
RXF 393 renal = system: RXF 393 renal
SK-MEL-2 melanoma = system: SK-MEL-2 melanoma
U251 CNS = system: U251 CNS
RPMI-8226 leukemia = system: RPMI-8226 leukemia
NCI-H460 lung = system: NCI-H460 lung
A498 renal = system: A498 renal
HOP-62 NSCLC = system: HOP-62 NSCLC
MDA-MB-435 = system: MDA-MB-435
PC-3 prostate = system: PC-3 prostate
M14 melanoma = system: M14 melanoma
ACHN renal = system: ACHN renal
SF-539 CNS = system: SF-539 CNS
HCT-15 colon = system: HCT-15 colon
IGROV1 ovarian = system: IGROV1 ovarian
NCI-H23 lung = system: NCI-H23 lung
HL-60(TB) leukemia = system: HL-60(TB) leukemia
MALME-3M melanoma = system: MALME-3M melanoma
OVCAR-5 ovarian = system: OVCAR-5 ovarian
UACC-62 melanoma = system: UACC-62 melanoma
OVCAR-8 ovarian = system: OVCAR-8 ovarian
UO-31 renal = system: UO-31 renal
SK-MEL-5 melanoma = system: SK-MEL-5 melanoma
EKVX NSCLC = system: EKVX NSCLC
SW-620 colon = system: SW-620 colon
CAKI-1 renal = system: CAKI-1 renal
KM12 colon = system: KM12 colon
SK-OV-3 ovarian = system: SK-OV-3 ovarian
K-562 leukemia = system: K-562 leukemia
SNB-75 CNS = system: SNB-75 CNS
OVCAR-4 ovarian = system: OVCAR-4 ovarian
A549 NSCLC = system: A549 NSCLC
COLO 205 colon = system: COLO 205 colon
MCF7 breast = system: MCF7 breast
MDA-MB-231 breast = system: MDA-MB-231 breast
HS 578T breast = system: HS 578T breast
DU-145 prostate = system: DU-145 prostate
NCI-H522 lung = system: NCI-H522 lung
MOLT-4 leukemia = system: MOLT-4 leukemia
TK-10 renal = system: TK-10 renal
SN12C renal = system: SN12C renal
T-47D breast = system: T-47D breast
SK-MEL-28 melanoma = system: SK-MEL-28 melanoma

SMILES: O=c1c2[nH]ccc2nc2n1CCS2
- GI50 (HOP-92 NSCLC): > 100 µM
- TGI (HOP-92 NSCLC): > 100 µM
- GI50 (SF-268 CNS): > 100 µM
- TGI (SF-268 CNS): > 100 µM
- GI50 (SNB-19 CNS): > 100 µM
- TGI (SNB-19 CNS): > 100 µM
- GI50 (HT29 colon): > 100 µM
- TGI (HT29 colon): > 100 µM
- GI50 (SF-295 CNS): > 100 µM
- TGI (SF-295 CNS): > 100 µM
- GI50 (HCC-2998 colon): > 100 µM
- TGI (HCC-2998 colon): > 100 µM
- GI50 (UACC-257 melanoma): > 100 µM
- TGI (UACC-257 melanoma): > 100 µM
- GI50 (786-0 renal): > 100 µM
- TGI (786-0 renal): > 100 µM
- GI50 (NCI-H226 lung): > 100 µM
- TGI (NCI-H226 lung): > 100 µM
- GI50 (NCI/ADR-RES ovarian): > 100 µM
- TGI (NCI/ADR-RES ovarian): > 100 µM
- GI50 (LOX IMVI melanoma): > 100 µM
- TGI (LOX IMVI melanoma): > 100 µM
- GI50 (HCT-116 colon): > 100 µM
- TGI (HCT-116 colon): > 100 µM
- GI50 (OVCAR-3 ovarian): > 100 µM
- TGI (OVCAR-3 ovarian): > 100 µM
- GI50 (RXF 393 renal): > 100 µM
- TGI (RXF 393 renal): > 100 µM
- GI50 (SK-MEL-2 melanoma): > 100 µM
- TGI (SK-MEL-2 melanoma): > 100 µM
- GI50 (U251 CNS): > 100 µM
- TGI (U251 CNS): > 100 µM
- GI50 (RPMI-8226 leukemia): > 100 µM
- TGI (RPMI-8226 leukemia): > 100 µM
- GI50 (NCI-H460 lung): > 100 µM
- TGI (NCI-H460 lung): > 100 µM
- GI50 (A498 renal): > 100 µM
- TGI (A498 renal): > 100 µM
- GI50 (HOP-62 NSCLC): > 100 µM
- TGI (HOP-62 NSCLC): > 100 µM
- GI50 (MDA-MB-435): > 100 µM
- TGI (MDA-MB-435): > 100 µM
- GI50 (PC-3 prostate): > 100 µM
- TGI (PC-3 prostate): > 100 µM
- GI50 (M14 melanoma): > 100 µM
- TGI (M14 melanoma): > 100 µM
- GI50 (ACHN renal): > 100 µM
- TGI (ACHN renal): > 100 µM
- GI50 (SF-539 CNS): > 100 µM
- TGI (SF-539 CNS): > 100 µM
- GI50 (HCT-15 colon): > 100 µM
- TGI (HCT-15 colon): > 100 µM
- GI50 (IGROV1 ovarian): > 100 µM
- TGI (IGROV1 ovarian): > 100 µM
- GI50 (NCI-H23 lung): > 100 µM
- TGI (NCI-H23 lung): > 100 µM
- GI50 (HL-60(TB) leukemia): 46.6 µM
- TGI (HL-60(TB) leukemia): > 100 µM
- GI50 (MALME-3M melanoma): > 100 µM
- TGI (MALME-3M melanoma): > 100 µM
- GI50 (OVCAR-5 ovarian): > 100 µM
- TGI (OVCAR-5 ovarian): > 100 µM
- GI50 (UACC-62 melanoma): > 100 µM
- TGI (UACC-62 melanoma): > 100 µM
- GI50 (OVCAR-8 ovarian): > 100 µM
- TGI (OVCAR-8 ovarian): > 100 µM
- GI50 (UO-31 renal): > 100 µM
- TGI (UO-31 renal): > 100 µM
- GI50 (SK-MEL-5 melanoma): 0.324 µM
- TGI (SK-MEL-5 melanoma): 0.913 µM
- GI50 (EKVX NSCLC): > 100 µM
- TGI (EKVX NSCLC): > 100 µM
- GI50 (SW-620 colon): > 100 µM
- TGI (SW-620 colon): > 100 µM
- GI50 (CAKI-1 renal): > 100 µM
- TGI (CAKI-1 renal): > 100 µM
- GI50 (KM12 colon): > 100 µM
- TGI (KM12 colon): > 100 µM
- GI50 (SK-OV-3 ovarian): > 100 µM
- TGI (SK-OV-3 ovarian): > 100 µM
- GI50 (K-562 leukemia): > 100 µM
- TGI (K-562 leukemia): > 100 µM
- GI50 (SNB-75 CNS): 33.6 µM
- TGI (SNB-75 CNS): > 100 µM
- GI50 (OVCAR-4 ovarian): > 100 µM
- TGI (OVCAR-4 ovarian): > 100 µM
- GI50 (A549 NSCLC): > 100 µM
- TGI (A549 NSCLC): > 100 µM
- GI50 (COLO 205 colon): > 100 µM
- TGI (COLO 205 colon): > 100 µM
- GI50 (MCF7 breast): > 100 µM
- TGI (MCF7 breast): > 100 µM
- GI50 (MDA-MB-231 breast): > 100 µM
- TGI (MDA-MB-231 breast): > 100 µM
- GI50 (HS 578T breast): > 100 µM
- TGI (HS 578T breast): > 100 µM
- GI50 (DU-145 prostate): > 100 µM
- TGI (DU-145 prostate): > 100 µM
- GI50 (NCI-H522 lung): > 100 µM
- TGI (NCI-H522 lung): > 100 µM
- GI50 (MOLT-4 leukemia): > 100 µM
- TGI (MOLT-4 leukemia): > 100 µM
- GI50 (TK-10 renal): > 100 µM
- TGI (TK-10 renal): > 100 µM
- GI50 (SN12C renal): > 100 µM
- TGI (SN12C renal): > 100 µM
- GI50 (T-47D breast): > 100 µM
- TGI (T-47D breast): > 100 µM
- GI50 (SK-MEL-28 melanoma): > 100 µM
- TGI (SK-MEL-28 melanoma): > 100 µM
